We go through four molecules from paper PMC5299597, “Evaluation of the safety, pharmacokinetics, pharmacodynamics, and drug-drug interaction potential of a selective Lp-PLA2 inhibitor (GSK2647544) in healthy volunteers” (International Journal of Clinical Pharmacology and …, 2016).

Series [1] deals with T1, CYP3A4 (Homo sapiens, UniProt P08684). As to the kind of experiment: clinical. The conditions noted are these: plasma, oral; for AUC(0-t): AUC(0-t) of analyte; for AUC(0-t) / Cmax: geometric mean (CVb%); for Cmax: Cmax of analyte.
In series [2] the target is T1, CYP3A4. The conditions noted are these: A1+S vs S, the 9 subjects who received both.
Series [3] can be described thus: Study 2: safety and tolerability (adverse events). As to conditions: by treatment: simvastatin 10 mg SD N = 12; GSK2647544 80 mg b.i.d. 7 days + simvastatin N = 9.
On the set-up of series [4]: method as in PMID 9461591. As to conditions: DM/HC pigs, vs untreated; cited from earlier work.
For series [5] the following is noted: phase 2a study; cited from earlier work.
[6] abbreviates: 10 mg, S = simvastatin 10 mg SD alone.
[7] abbreviates: A1+S = simvastatin 10 mg SD plus GSK2647544 80 mg b.i.d. for 7 days.
Where [8] appears, read: P1+S = simvastatin 10 mg SD plus matched placebo b.i.d. for 7 days.

For orientation: AUC(0-t) means the area under the concentration-time curve up to a stated or last time point. A word on the Cmax: it is the highest concentration seen after dosing. The Tmax is the time from dosing to the highest level.

T1 sequence (P08684 whole entry): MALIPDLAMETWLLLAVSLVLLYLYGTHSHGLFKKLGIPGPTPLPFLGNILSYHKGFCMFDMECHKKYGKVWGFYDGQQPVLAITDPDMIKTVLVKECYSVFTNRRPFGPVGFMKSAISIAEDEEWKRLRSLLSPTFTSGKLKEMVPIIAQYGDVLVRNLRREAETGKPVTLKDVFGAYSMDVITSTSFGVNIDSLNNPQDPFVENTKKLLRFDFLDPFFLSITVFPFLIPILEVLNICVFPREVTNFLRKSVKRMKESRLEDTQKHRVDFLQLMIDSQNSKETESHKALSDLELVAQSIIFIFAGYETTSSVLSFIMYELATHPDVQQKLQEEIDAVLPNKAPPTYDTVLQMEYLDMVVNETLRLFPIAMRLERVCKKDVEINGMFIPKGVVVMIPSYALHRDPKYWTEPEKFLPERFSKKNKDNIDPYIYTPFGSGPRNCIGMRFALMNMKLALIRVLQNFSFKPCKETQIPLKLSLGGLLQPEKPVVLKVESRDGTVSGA

Take `CCC(C)(C)C(=O)O[C@H]1C[C@@H](C)C=C2C=C[C@H](C)[C@H](CC[C@@H](O)C[C@@H](O)CC(=O)O)[C@H]21` [Simvastatin acid, simvastatin acid]: the AUC(0-t) turned out to be 2.49 ng·h/mL in series [1] (setting [6]), 7.93 ng·h/mL in series [1] (setting [7]) and 2.14 ng·h/mL in series [1] (setting [8]). Also, the Cmax in series [1] (setting [6]) came out at 0.504 ng/mL; in series [1] (setting [7]) it was 1.3 ng/mL; in series [1] (setting [8]), 0.351 ng/mL. Besides, the Tmax in series [1] (10 mg, tmax of analyte, median (range), S = simvastatin 10 mg SD alone) came out at 4.04 h; in series [1] (median tmax of analyte, simvastatin alone) it was 4 h; in series [1] (median tmax of analyte, simvastatin in combination with GSK2647544), 6 h; in series [1] (tmax of analyte, median (range), A1+S = simvastatin 10 mg SD plus GSK2647544 80 mg b.i.d. for 7 days), 5.92 h; in series [1] (tmax of analyte, median (range), P1+S = simvastatin 10 mg SD plus matched placebo b.i.d. for 7 days) it was 5.92 h. For the same molecule, the “Ratio of geometric means (90% CI), AUC(0-t)” value in series [2] was 3.09 (1.05, 9.03). Moreover, the “Ratio of geometric means (90% CI), AUC(0–∞)” value in series [2] was 1.50 (0.48, 4.71). Further, in series [2], the “Ratio of geometric means (90% CI), Cmax” value is 2.30 (1.46, 3.63).

Turning to `CCC(C)(C)C(=O)O[C@H]1C[C@@H](C)C=C2C=C[C@H](C)[C@H](CC[C@@H]3C[C@@H](O)CC(=O)O3)[C@H]21` [Simvastatin, simvastatin], in series [3], the Abdominal discomfort is 0 n (%), the Abdominal distention is 0 n (%), the “Any AE” value is 1 (8%) n (%) and the Application site rash is reported as 1 (8%) n (%). Moreover, in series [3], the Arthragia is 0 n (%), the Back pain is reported as 0 n (%), the Dizziness is reported as 0 n (%) and the Eructation is 0 n (%). Also, in series [3], the Headache was 0 n (%), the Nasopharyngitis is recorded as 0 n (%), the Pain in extremity is given as 0 n (%) and the Pollakiuria was 1 (8%) n (%).

Regarding `CCN(CC)CCN(Cc1ccc(-c2ccc(C(F)(F)F)cc2)cc1)C(=O)Cn1c(SCc2ccc(F)cc2)nc(=O)c2c1CCC2` [darapladib], in series [4], the “extent of immunoglobulin-G brain parenchyma penetration” value is given as “numerically reduced” and the “total amount of brain amyloid-β peptide 1-42 deposition” value is reported as “significantly lowered”.

As to `COCCN1CCC(N(Cc2ccc(-c3ccc(C(F)(F)F)cc3)cc2)C(=O)Cn2c(SCc3cccc(F)c3F)cc(=O)c3ccccc32)CC1` [rilapladib], the cognitive outcomes in series [5] is “improved cognitive outcomes”.
